Measurements from patent US11028051B2, “Tetrahydroquinoline-based bromodomain inhibitors” (St. Jude Children's Research Hospital, priority 2016, dated 2021).

Experiments:
Assay in all cases: competitive TR-FRET assay, BET-BD with acetylated peptide ligand
Format in all cases: binding
BRD2-BD1 = BRD2-BD1 (Homo sapiens (Human), UniProt P25440); settings: BRD2-BD1; Table 11 additional modifications; read-out: 2.1 EC50
Protocol: (§1) Inhibitor potency was determined using a competitive TR-FRET assay as detailed herein, measuring interaction of the respective BET-BD with an acetylated peptide ligand (Table 2).

BRD4-BD2 = BRD4-BD2 (Homo sapiens (Human), UniProt O60885); settings: BRD4-BD2; Table 11 additional modifications; read-out: 4.2 EC50
Protocol: as §1

BRD3-BD1 = BRD3-BD1 (Homo sapiens (Human), UniProt Q15059); settings: BRD3-BD1; Table 11 additional modifications; read-out: 3.1 EC50
Protocol: as §1

BRDT = BRDT (Homo sapiens, UniProt Q58F21); settings: BRDT; Table 11 additional modifications; read-out: BRDT EC50
Protocol: as §1

BRD2-BD2 = BRD2-BD2 (Homo sapiens (Human), UniProt P25440); settings: for EC50: BRD2-BD2, Table 11 additional modifications, read-out: 2.2 EC50; for 2.1/2.2: ratio of BRD2-BD1 EC50 to BRD2-BD2 EC50 (selectivity)
Protocol: as §1

BRD4-BD1 = BRD4-BD1 (Homo sapiens (Human), UniProt O60885); settings: BRD4-BD1; Table 11 additional modifications; read-out: 4.1 EC50
Protocol: as §1

Chain of BRD3-BD1 (Q15059 34-140): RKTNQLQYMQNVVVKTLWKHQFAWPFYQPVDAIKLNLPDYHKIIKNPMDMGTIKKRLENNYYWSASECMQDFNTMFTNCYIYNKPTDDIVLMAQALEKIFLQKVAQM
Chain of BRD2-BD2 (P25440 344-453): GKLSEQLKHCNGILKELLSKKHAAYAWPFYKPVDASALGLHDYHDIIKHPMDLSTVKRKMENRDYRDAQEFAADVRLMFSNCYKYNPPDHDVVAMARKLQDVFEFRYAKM
Chain of BRD2-BD1 (P25440 74-180): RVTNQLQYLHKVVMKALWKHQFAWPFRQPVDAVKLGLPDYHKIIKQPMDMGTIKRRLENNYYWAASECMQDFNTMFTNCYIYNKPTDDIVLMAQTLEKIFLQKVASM

Row | SMILES | EC50 (BRD2-BD1) [µM] | EC50 (BRD4-BD2) [µM] | EC50 (BRD3-BD1) [µM] | EC50 (BRDT) [µM] | EC50 (BRD2-BD2) [µM] | 2.1/2.2 (BRD2-BD2) | EC50 (BRD4-BD1) [µM]
1 | CC(=O)Nc1cccc(-c2ccc3c(c2)[C@H](NC(=O)OC(C)C)C[C@H](C)N3C(C)=O)c1 [compound 1] | 0.85 | 0.23 | 0.62 | 5.9 | 0.29 | 2.9 | 0.67
2 | COC(=O)c1cccc(N[C@@H]2C[C@H](C)N(C(C)=O)c3ccc(-c4cccc(NC(C)=O)c4)cc32)c1 [compound 7] | 81 | 81 | 1.6 | 10 | 0.08 | >1000 | 4.8
3 | CC(=O)Nc1cccc(-c2ccc3c(c2)[C@H](N)C[C@H](C)N3C(C)=O)c1 [compound 9] | 12 | 15 | 10 | 10 | 14 | 0.86 | 47
4 | CC(=O)Nc1cccc(-c2ccc3c(c2)[C@H](Nc2ccc(N(C)C(C)=O)cc2)C[C@H](C)N3C(C)=O)c1 [compound 11] | 3.2 | 51 | 1.6 | 4.3 | 0.2 | 16 | 3.4
5 | COc1ccc(-c2ccc3c(c2)[C@H](NC(=O)OC(C)C)C[C@H](C)N3C(C)=O)cc1 [compound 59] | 3.6 | 2.1 | 1.9 |  | 1.2 | 2.9 | 3.5
6 | COc1ccccc1-c1ccc2c(c1)[C@H](NC(=O)OC(C)C)C[C@H](C)N2C(C)=O [compound 60] | 15 | 14 | 11 |  | 2.9 | 5.3 | > 50
7 | CC(=O)N1c2ccc(-c3ccc(Oc4ccccc4)cc3)cc2[C@H](NC(=O)OC(C)C)C[C@@H]1C [compound 61] | 13 | 14 | 8.8 |  | 2.1 | 6.2 | 11
8 | CC(=O)Nc1cccc(-c2ccc3c(c2)[C@H](NC(=O)c2ccccc2)C[C@H](C)N3C(C)=O)c1 [compound 62] | 77 | 41 | 62 |  | 77 | 6.0 | 77
9 | CC(=O)Nc1cccc(-c2ccc3c(c2)[C@H](NCc2ccccc2)C[C@H](C)N3C(C)=O)c1 [compound 63] | 13 | 7.6 | 6.9 |  | 2.4 | 1.0 | 13
10 | CC(=O)Nc1cccc(-c2ccc3c(c2)[C@H](NC(=O)Cc2ccccc2)C[C@H](C)N3C(C)=O)c1 [compound 64] | 8.1 | 10 | 11 |  | 2 | 4.1 | 7.3
11 | COc1ccc(C(=O)N[C@@H]2C[C@H](C)N(C(C)=O)c3ccc(-c4cccc(NC(C)=O)c4)cc32)cc1 [compound 66] | 71 | 78 | 77 |  | 36 | 2.0 | 78
12 | CCC(=O)N[C@@H]1C[C@H](C)N(C(C)=O)c2ccc(-c3cccc(NC(C)=O)c3)cc21 [compound 67] | 24 | 11 | 36 |  | 18 | 1.4 | 60
13 | CC(=O)Nc1cccc(-c2ccc3c(c2)[C@H](NC(=O)c2ccc(F)cc2)C[C@H](C)N3C(C)=O)c1 [compound 68] | 70 | 20 | 41 |  | 10 | 6.9 | 80
14 | CC(=O)Nc1cccc(-c2ccc3c(c2)[C@H](NC(=O)c2ccc(C(F)(F)F)cc2)C[C@H](C)N3C(C)=O)c1 [compound 69] | 75 | 75 | 75 |  | 2.7 | 28 | 74
15 | CC(=O)Nc1cccc(-c2ccc3c(c2)[C@H](NCCCc2ccccc2)C[C@H](C)N3C(C)=O)c1 [compound 70] | 16 | 26 | 9.9 |  | 69 | 0.23 | 69
16 | CC(=O)Nc1cccc(-c2ccc3c(c2)[C@H](NC(=O)c2ccc(Cl)cc2)C[C@H](C)N3C(C)=O)c1 [compound 72] | 51 | 51 | 27 |  | 51 | 1.0 | 39
17 | CC(=O)Nc1cccc(-c2ccc3c(c2)[C@H](NC(=O)CC(C)C)C[C@H](C)N3C(C)=O)c1 [compound 73] | 16 | 19 | 12 |  | 83 | 0.20 | 33

Row | SMILES | EC50 (BRD2-BD1) [µM] | EC50 (BRD4-BD2) [µM] | EC50 (BRD3-BD1) [µM] | EC50 (BRDT) [µM] | EC50 (BRD2-BD2) [µM] | 2.1/2.2 (BRD2-BD2) | EC50 (BRD4-BD1) [µM]
18 | CC(=O)Nc1cccc(-c2ccc3c(c2)[C@H](NC(=O)CCc2ccccc2)C[C@H](C)N3C(C)=O)c1 [compound 74] | 11 | 77 | 9.8 |  | 17 | 0.65 | 19
19 | CC(=O)Nc1cccc(-c2ccc3c(c2)[C@H](NCc2ccc(C(F)(F)F)cc2)C[C@H](C)N3C(C)=O)c1 [compound 75] | 53 | 53 | 36 |  | 53 | 1.0 | 53
20 | CC(=O)Nc1ccc(N[C@@H]2C[C@H](C)N(C(C)=O)c3ccc(-c4cccc(NC(C)=O)c4)cc32)cc1 [compound 76] | 3.4 | 0.65 | 2.3 |  | 0.27 | 12 | 3.2
21 | CC(=O)N1c2ccc(-c3ccc4c(c3)OCCO4)cc2[C@H](NC(=O)OC(C)C)C[C@@H]1C [compound 77] | 16 | 14 | 10 |  | 9.7 | 1.6 | 15
22 | CC(=O)N1c2ccc(-c3cccc(-n4cccn4)c3)cc2[C@H](NC(=O)OC(C)C)C[C@@H]1C [compound 78] | 7.7 | 6.7 | 4 |  | 2.9 | 2.6 | 6.1
23 | CC(=O)N1c2ccc(-c3ccc4cc[nH]c4c3)cc2[C@H](NC(=O)OC(C)C)C[C@@H]1C [compound 79] | 7.1 | 8.8 | 2.2 |  | 2.7 | 2.6 | 8.2
24 | CC(=O)N1c2ccc(-c3ccc4occc(=O)c4c3)cc2[C@H](NC(=O)OC(C)C)C[C@@H]1C [compound 80] | 6.3 | 4 | 2.1 |  | 1.1 | 2.0 | 5.3
25 | CC(=O)N1c2ccc(-c3ccc4[nH]ccc4c3)cc2[C@H](NC(=O)OC(C)C)C[C@@H]1C [compound 81] | 8 | 8.1 | 5.9 |  | 4.7 | 2.7 | 6.6
26 | COC(=O)c1ccoc1-c1ccc2c(c1)[C@H](NC(=O)OC(C)C)C[C@H](C)N2C(C)=O [compound 82] | 4 | 2 | 2.7 |  | 1.1 | 6.0 | 3.5
27 | CCOC(=O)c1ccc(-c2ccc3c(c2)[C@H](NC(=O)OC(C)C)C[C@H](C)N3C(C)=O)o1 [compound 83] | 7.5 | 3.4 | 4.3 |  | 1.6 | 1.7 | 6
28 | CC(=O)N1c2ccc(-c3cccc(NC(=O)OC(C)(C)C)c3)cc2[C@H](NC(=O)OC(C)C)C[C@@H]1C [compound 84] | 2.5 | 3.5 | 0.99 |  | 0.46 | 2.5 | 2.1
29 | CC(=O)N1c2ccc(C3=CCCO3)cc2[C@H](NC(=O)OC(C)C)C[C@@H]1C [compound 85] | 13 | 12 | 4.8 |  | 1.2 | 3.6 | 8.5
30 | CC(=O)N1c2ccc(-c3cc4ccccc4o3)cc2[C@H](NC(=O)OC(C)C)C[C@@H]1C [compound 86] | 1.8 | 41 | 1 |  | 27 | 4.7 | 2.5
31 | CC(=O)N1c2ccc(-c3cccn(C)c3=O)cc2[C@H](NC(=O)OC(C)C)C[C@@H]1C [compound 87] | 68 | 7.6 | 13 |  | 13 | 5.4 | 68
32 | CC(=O)N1c2ccc(-c3cccc(CN)c3)cc2[C@H](NC(=O)OC(C)C)C[C@@H]1C [compound 88] | 2.1 | 0.65 | 1.4 |  | 0.47 | 11 | 2.9
33 | CC(=O)N1c2ccc(-c3cccc(CCO)c3)cc2[C@H](NC(=O)OC(C)C)C[C@@H]1C [compound 89] | 1.6 | 1.7 | 0.87 |  | 0.43 | 0.067 | 1.4
34 | CC(=O)Nc1cccc(-c2ccc3c(c2)[C@H](Nc2ccc(C(=O)O)cc2)C[C@H](C)N3C(C)=O)c1 [compound 120] | 33 | 0.17 | 4.9 |  | 0.13 | 3.1 | 13
